The supplement of paper PMC10307832

Legend:
Assay in all cases: relative viability (nuclei count vs DMSO), 5 days (fraction); higher = more cells survive
ABC-1 = system: ABC-1
How it was run: (§1)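 Each reported value is a median over duplicate plates. It expresses relative viability: treated-well nuclei count divided by vehicle-well nuclei count. Lung cancer cell lines in 1536-well plates were dosed by pin tool a day after seeding, alone with one drug or with a fixed anchor-drug dose plus five library-drug doses (not always all listed) in √10 steps, and nuclei were counted after 5 days.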

BEN = system: BEN
How it was run: as §1

EKVX = system: EKVX
How it was run: as §1

EPLC-272H = system: EPLC-272H
How it was run: as §1

HCC-827 = system: HCC-827
How it was run: as §1

HOP-62 = system: HOP-62
How it was run: as §1

LU99A = system: LU99A
How it was run: as §1

LXF-289 = system: LXF-289
How it was run: as §1

NCI-H1563 = system: NCI-H1563
How it was run: as §1

NCI-H1666 = system: NCI-H1666
How it was run: as §1

NCI-H1975 = system: NCI-H1975
How it was run: as §1

NCI-H2170 = system: NCI-H2170
How it was run: as §1

NCI-H23 = system: NCI-H23
How it was run: as §1

NCI-H2405 = system: NCI-H2405
How it was run: as §1

NCI-H3122 = system: NCI-H3122
How it was run: as §1

NCI-H322M = system: NCI-H322M
How it was run: as §1

NCI-H358 = system: NCI-H358
How it was run: as §1

NCI-H520 = system: NCI-H520
How it was run: as §1

NCI-H727 = system: NCI-H727
How it was run: as §1

NCI-H838 = system: NCI-H838
How it was run: as §1

SK-MES-1 = system: SK-MES-1
How it was run: as §1

UMC-11 = system: UMC-11
How it was run: as §1

COCC1(CO)C(=O)C2CCN1CC2 (centres undefined) [PRIMA-1MET] + Cc1nc(NC(=O)N2CCC[C@H]2C(N)=O)sc1-c1ccnc(C(C)(C)C(F)(F)F)c1 [Alpelisib] (partner 2 µM)
relative viability (ABC-1; first compound 0.2 µM): 1.07 | relative viability (ABC-1; first compound 0.6325 µM): 1.1 | relative viability (ABC-1; first compound 2 µM): 1.11 | relative viability (ABC-1; first compound 6.325 µM): 1.04 | relative viability (ABC-1; first compound 20 µM): 0.479 | relative viability (BEN; first compound 0.2 µM): 1.26 | relative viability (BEN; first compound 0.6325 µM): 0.833 | relative viability (BEN; first compound 6.325 µM): 0.909 | relative viability (BEN; first compound 20 µM): 0.994 | relative viability (EKVX; first compound 0.2 µM): 0.978 | relative viability (EKVX; first compound 0.6325 µM): 0.966 | relative viability (EKVX; first compound 2 µM): 0.638 | relative viability (EKVX; first compound 6.325 µM): 0.911 | relative viability (EKVX; first compound 20 µM): 0.778 | relative viability (EPLC-272H; first compound 0.2 µM): 1.06 | relative viability (EPLC-272H; first compound 0.6325 µM): 0.784 | relative viability (EPLC-272H; first compound 2 µM): 0.869 | relative viability (EPLC-272H; first compound 6.325 µM): 0.869 | relative viability (EPLC-272H; first compound 20 µM): 0.667 | relative viability (HCC-827; first compound 0.2 µM): 1.01 | relative viability (HCC-827; first compound 0.6325 µM): 0.896 | relative viability (HCC-827; first compound 2 µM): 0.877 | relative viability (HCC-827; first compound 6.325 µM): 0.974 | relative viability (HCC-827; first compound 20 µM): 0.948 | relative viability (HOP-62; first compound 0.2 µM): 1.13 | relative viability (HOP-62; first compound 0.6325 µM): 0.986 | relative viability (HOP-62; first compound 2 µM): 0.732 | relative viability (HOP-62; first compound 6.325 µM): 1.18 | relative viability (HOP-62; first compound 20 µM): 0.487 | relative viability (LU99A; first compound 0.2 µM): 0.631 | relative viability (LU99A; first compound 0.6325 µM): 0.457 | relative viability (LU99A; first compound 2 µM): 0.488 | relative viability (LU99A; first compound 6.325 µM): 0.293 | relative viability (LU99A; first compound 20 µM): 0.0448 | relative viability (LXF-289; first compound 0.2 µM): 1.13 | relative viability (LXF-289; first compound 0.6325 µM): 0.973 | relative viability (LXF-289; first compound 2 µM): 1.08 | relative viability (LXF-289; first compound 6.325 µM): 1.04 | relative viability (LXF-289; first compound 20 µM): 0.939 | relative viability (NCI-H1563; first compound 0.2 µM): 0.889 | relative viability (NCI-H1563; first compound 0.6325 µM): 0.904 | relative viability (NCI-H1563; first compound 2 µM): 0.915 | relative viability (NCI-H1563; first compound 6.325 µM): 1.05 | relative viability (NCI-H1563; first compound 20 µM): 0.361 | relative viability (NCI-H1666; first compound 0.2 µM): 1.1 | relative viability (NCI-H1666; first compound 0.6325 µM): 0.879 | relative viability (NCI-H1666; first compound 2 µM): 0.999 | relative viability (NCI-H1666; first compound 6.325 µM): 0.834 | relative viability (NCI-H1666; first compound 20 µM): 0.123 | relative viability (NCI-H1975; first compound 0.2 µM): 0.822 | relative viability (NCI-H1975; first compound 0.6325 µM): 0.603 | relative viability (NCI-H1975; first compound 2 µM): 0.694 | relative viability (NCI-H1975; first compound 6.325 µM): 0.68 | relative viability (NCI-H1975; first compound 20 µM): 0.574 | relative viability (NCI-H2170; first compound 0.2 µM): 0.889 | relative viability (NCI-H2170; first compound 0.6325 µM): 0.749 | relative viability (NCI-H2170; first compound 2 µM): 0.864 | relative viability (NCI-H2170; first compound 6.325 µM): 0.847 | relative viability (NCI-H2170; first compound 20 µM): 0.733 | relative viability (NCI-H23; first compound 0.2 µM): 0.793 | relative viability (NCI-H23; first compound 0.6325 µM): 0.583 | relative viability (NCI-H23; first compound 2 µM): 0.555 | relative viability (NCI-H23; first compound 6.325 µM): 0.669 | relative viability (NCI-H23; first compound 20 µM): 0.111 | relative viability (NCI-H2405; first compound 0.2 µM): 0.517 | relative viability (NCI-H2405; first compound 0.6325 µM): 0.896 | relative viability (NCI-H2405; first compound 6.325 µM): 0.625 | relative viability (NCI-H2405; first compound 20 µM): 0.0731 | relative viability (NCI-H3122; first compound 0.2 µM): 0.696 | relative viability (NCI-H3122; first compound 0.6325 µM): 0.683 | relative viability (NCI-H3122; first compound 2 µM): 0.844 | relative viability (NCI-H3122; first compound 6.325 µM): 0.628 | relative viability (NCI-H3122; first compound 20 µM): 0.684 | relative viability (NCI-H322M; first compound 0.2 µM): 0.942 | relative viability (NCI-H322M; first compound 6.325 µM): 0.907 | relative viability (NCI-H322M; first compound 20 µM): 0.671 | relative viability (NCI-H358; first compound 0.2 µM): 1.17 | relative viability (NCI-H358; first compound 0.6325 µM): 0.781 | relative viability (NCI-H358; first compound 6.325 µM): 0.908 | relative viability (NCI-H358; first compound 20 µM): 0.0962 | relative viability (NCI-H520; first compound 0.2 µM): 1.21 | relative viability (NCI-H520; first compound 0.6325 µM): 0.84 | relative viability (NCI-H520; first compound 6.325 µM): 0.831 | relative viability (NCI-H520; first compound 20 µM): 0.0746 | relative viability (NCI-H727; first compound 0.2 µM): 0.592 | relative viability (NCI-H727; first compound 0.6325 µM): 0.612 | relative viability (NCI-H727; first compound 2 µM): 0.568 | relative viability (NCI-H727; first compound 6.325 µM): 0.402 | relative viability (NCI-H727; first compound 20 µM): 0.0858 | relative viability (NCI-H838; first compound 0.2 µM): 1.26 | relative viability (NCI-H838; first compound 0.6325 µM): 0.968 | relative viability (NCI-H838; first compound 2 µM): 1.06 | relative viability (NCI-H838; first compound 6.325 µM): 1.13 | relative viability (NCI-H838; first compound 20 µM): 0.61 | relative viability (SK-MES-1; first compound 0.2 µM): 0.885 | relative viability (SK-MES-1; first compound 0.6325 µM): 1.02 | relative viability (SK-MES-1; first compound 2 µM): 0.747 | relative viability (SK-MES-1; first compound 6.325 µM): 0.823 | relative viability (SK-MES-1; first compound 20 µM): 0.822 | relative viability (UMC-11; first compound 0.2 µM): 1.03 | relative viability (UMC-11; first compound 0.6325 µM): 0.824 | relative viability (UMC-11; first compound 2 µM): 1.07 | relative viability (UMC-11; first compound 6.325 µM): 1.13 | relative viability (UMC-11; first compound 20 µM): 0.899
